Legend:
[1] = tested on: oral peroxidase (OPO); assay type: biochemical, human; conditions: for OPO activity in the presence of aldehydes: 2 mM acetylaldehyde, 80 μM acrolein, 20 μM crotonaldehyde, TS-treated saliva
[2] = tested on: lymphocytes; assay: Western immunoblotting analysis of lymphocyte protein carbonylation; assay type: cell-based, human
Description: Western Immunoblotting Analysis of Protein Carbonylation: Salivary proteins were separated by SDS-PAGE using a 10% gel and electro-blotted onto nitrocellulose membranes, as previously described (14). The Oxyblot Kit (Intergen Co, Purchase N.Y.) was used with anti-dinitrophenyhydrazine (DNPH) antibodies to label carbonylated proteins. Protein carbonylation levels were then visualized by reacting labelled blots with a secondary HRP-conjugated anti-rabbit antibody followed by ECL detection of secondarily labelled proteins, as previously described (14).
(§1) Lymphocyte Isolation: Blood from 10 consenting, healthy, non-smoking subjects, 5 males and 5 females ranging from 18-55 years of age, was drawn into EDTA-containing vacutainers. Lymphocytes were isolated by Ficoll-Hypaque (Sigma) gradient centrifugation according to the manufacturer's instructions and lymphocytes were suspended at 10^7 cells/ml PBS (Beit-Ha'emek Industries, Israel), and used immediately in experiments.
Treatment of Lymphocytes With TS in the Presence of Saliva: Exposure of lymphocytes to TS was carried out by attaching a Time cigarette (capable of removing particles>[…] in diameter) in which the filter tip was removed to a Cambridge filter which was combined with a vacuum system to aspirate gas-phase TS inside sealed 250 ml flasks containing lymphocytes suspended in 12-15 ml PBS, as previously described (14, 15). A reproducible vacuum was created in the flask and upon application of vacuum for 5 s, 80-100 ml of TS from the lit cigarette was drawn into the flask. […] Saliva treatment of lymphocytes was performed by suspending these in PBS supplemented with 30% (v/v) saliva. Following treatment with the TS of 0.5 cigarettes, flasks were incubated at 37° C. for 20 min in a metabolic shaker and subjected to a further 4 treatments with TS, as described above.
Western Immunoblotting Analysis of Lymphocyte Protein Carbonylation: Lymphocytes were washed twice in PBS following treatment by centrifugation at 2,000 rpm for 2 minutes to remove saliva and other components of the incubation medium. Lymphocytes were then centrifuged at 14,000 rpm for 1 minute and lysed by sonication for 10 seconds in lysis buffer containing 20 mM Tris pH 7.4, 1 mM EGTA, 1 mM PMSF, 50 μM NaVO4 and 50 mM NaF. Lysates were centrifuged at 14,000 rpm for 1 minute and supernatants were harvested for analysis. Carbonylation analysis was performed as described above.

[3] = tested on: lymphocytes; assay: Lymphocyte survival by Trypan Blue exclusion assay; assay type: cell-based, human
Experimental: Saliva Collection: Saliva was collected from healthy subjects, 3 males and 3 females ranging from 21-47 years of age, under non-stimulatory conditions in a quiet room during the morning between 8 am and noon. Saliva collection was performed at least 1 h after eating by spitting into a recipient for 10 minutes, as previously described (43). Following collection, saliva was immediately centrifuged at 800×g for 10 min at 4° C. to remove cells and cell debris and the resulting supernatant was used for biochemical analyses.
as §1
A reproducible vacuum was created in the flask and upon application of vacuum for 5 s, 80-100 ml of TS from the lit cigarette was drawn into the flask. […] Saliva treatment of lymphocytes was performed by suspending these in PBS supplemented with 30% (v/v) saliva. Following treatment with the TS of 0.5 cigarettes, flasks were incubated at 37° C. for 20 min in a metabolic shaker and subjected to a further 4 treatments with TS, as described above.
Measurement of Lymphocyte Survival: Lymphocyte viability was assessed by Trypan Blue exclusion assay.

[4] = tested on: oral peroxidase (OPO); assay: OPO activity in saliva exposed in vitro to tobacco smoke (NBS-SCN assay); assay type: biochemical, human
[5] = biological target: T1, MPO (Homo sapiens, UniProt P05164); assay: Control MPO activity (commercial MPO) in the presence of dapsone; assay type: biochemical; conditions: 150 μM dapsone
T1 construct: purchased
T1 sequence (P05164 49-745): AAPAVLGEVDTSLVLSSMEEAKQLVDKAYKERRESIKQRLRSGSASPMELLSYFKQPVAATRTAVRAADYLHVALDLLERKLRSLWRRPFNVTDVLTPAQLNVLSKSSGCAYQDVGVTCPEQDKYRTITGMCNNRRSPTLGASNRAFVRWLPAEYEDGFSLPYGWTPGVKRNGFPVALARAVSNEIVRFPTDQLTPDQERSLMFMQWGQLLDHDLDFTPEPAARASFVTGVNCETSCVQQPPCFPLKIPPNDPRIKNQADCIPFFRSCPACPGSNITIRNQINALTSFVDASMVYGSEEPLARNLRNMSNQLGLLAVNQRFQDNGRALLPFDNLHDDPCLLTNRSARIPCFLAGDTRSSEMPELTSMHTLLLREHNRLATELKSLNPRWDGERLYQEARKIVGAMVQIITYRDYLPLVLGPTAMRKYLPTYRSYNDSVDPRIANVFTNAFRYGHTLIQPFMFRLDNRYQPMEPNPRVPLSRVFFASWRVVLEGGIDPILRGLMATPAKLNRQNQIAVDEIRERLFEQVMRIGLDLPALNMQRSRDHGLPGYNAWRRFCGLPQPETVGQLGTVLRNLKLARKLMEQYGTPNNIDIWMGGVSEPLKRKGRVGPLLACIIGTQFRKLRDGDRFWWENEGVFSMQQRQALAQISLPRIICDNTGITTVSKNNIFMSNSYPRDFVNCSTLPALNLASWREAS
Experimental: FIG. 7 is a data plot depicting the effect of increasing concentrations of dapsone (4-aminophenylsulfone) on OPO activity in TS-treated saliva. Abbreviations: NO.1, NO.2, NO.3, NO4 and NO.5 correspond to saliva from 5 different subjects and plasma corresponds to commercial MPO.
Analysis of OPO Activity: OPO activity was measured according to the 2-nitrobenzoic-thiocyanate (NBS-SCN) assay, as previously described (20). Briefly, DTNB is reduced to NBS by addition of β-mercaptoethanol and decreases in NBS concentration by reaction with OSCN^−, a product of OPO, are monitored spectrophotometrically by measuring absorbance at 412 nm at pH 5.6 (18). One unit of enzyme activity was defined as the activity required to cleave 1 μmol of NBS/min at 22° C., using a molar extinction coefficient of 12,800 (20).
Thus, in order to determine which of the MPO or SPO activity components of OPO activity are lost as a result of exposure to TS, OPO activity in TS-treated saliva was measured in the presence of increasing concentrations of 50-150 μM dapsone.

[6] = lymphocytes in PBS, 20 minutes, 80 μM acrolein, 20 μM crotonaldehyde or 2 mM acetaldehyde

## [Cl][Fe]([Cl])[Cl] [FeCl3]
[1]; saliva exposed 2 h to 1 mM ascorbate or 100 μM FeCl3
  inhibition of OPO activity: did not inhibit OPO activity

## N[C@@H](CCC(=O)N[C@@H](CS)C(=O)NCC(=O)O)C(=O)O [GSH, L-γ-glutamyl-1-cysteine-glycine]
[2]; TS and saliva, 20 minutes, 1 mM agent (FIG. 20)
  protection assessed by lymphocyte protein carbonylation levels: unique protection
[2]; aldehydes + 1 mM GSH, 20 min (FIG. 21)
  protection from aldehyde-induced protein carbonylation: protection provided by GSH was similar
[3]
  effect on death rate of lymphocytes exposed to TS and saliva: partially prevented
[4]; 1 mM agent
  loss of OPO activity in TS-treated saliva in the presence or absence of the agent: similar

## N#C[S-].[K+] [KSCN, potassium thiocyanate]
[4]
  protection against TS-induced loss of OPO activity: significant protection against loss of OPO activity

## CC(=O)N[C@@H](CS)C(=O)O [NAC, N-acetylcysteine]
[3]
  effect on death rate of lymphocytes exposed to TS and saliva: did not alter the death rate

## C/C1=C2/[N-][C@H]([C@H](CC(N)=O)[C@@]2(C)CCC(=O)NC[C@@H](C)OP(=O)([O-])O[C@H]2[C@@H](O)[C@@H](n3cnc4cc(C)c(C)cc43)O[C@@H]2CO)[C@]2(C)N=C(/C(C)=C3N=C(/C=C4N=C1[C@@H](CCC(N)=O)C\4(C)C)[C@@H](CCC(N)=O)[C@]\3(C)CC(N)=O)[C@@H](CCC(N)=O)[C@]2(C)CC(N)=O.[Co+3].[OH-] [OH—CO, hydroxocobalamin]
[1]; 1 mM OH—CO, saliva treated 2 min with 1 mM KCN
  prevention of KCN-associated loss of OPO activity: completely prevent
[4]; increasing amounts of OH—CO (0.5, 1, 2 mM, FIG. 14), 40 min after treatment with TS
  prevention of loss of OPO activity in saliva: prevent, to a significant extent
[4]; preincubation of saliva with OH—CO, TS or KCN
  prevention of loss of OPO activity by preincubation: could prevent both TS- and KCN-associated loss of OPO activity

## CC=O [acetaldehyde]
[3]; both, human
  death rates: 92.7%
[1]
  OPO activity in the presence of aldehydes: unaffected

## C=CC=O [acrolein]
[2]; acrolein with saliva versus acrolein alone (FIG. 22: 80 μM, 20 min)
  lymphocyte protein carbonylation levels: did not enhance carbonylation levels
[3]; acrolein, first value of 'respectively' (taken as without saliva), time not given
  survival rates: 57.9%
[3]; acrolein, second value of 'respectively' (taken as with saliva), time not given
  survival rates: 66.4%
[3]; [6]
  survival rates: 63.3%
[3]; lymphocytes in PBS, 80 minutes, 80 μM acrolein, 20 μM crotonaldehyde or 2 mM acetaldehyde
  death rates: 57.3%
[1]
  OPO activity in the presence of aldehydes: unaffected

## O=C1O[C@H]([C@@H](O)CO)C(O)=C1O [ascorbate]
[3]; ascorbate (1 mM) added to PBS containing FeCl3 (90 μM), no saliva, 20 min (FIG. 23 column 8)
  lymphocyte survival rate: 77%
[3]; ascorbate (1 mM) added to saliva-containing medium without exposure to TS, 20 min (FIG. 23 column 6)
  lymphocyte survival rate: 78%

## C/C=C/C=O [crotonaldehyde]
[3]; both, human
  death rates: 75.3%
[3]; [6]
  survival rates: 80.3%
[1]
  OPO activity in the presence of aldehydes: unaffected

## Nc1ccc(S(=O)(=O)c2ccc(N)cc2)cc1 [dapsone, 4-aminophenylsulfone]
[5]
  control MPO activity: unaffected
[4]; TS-treated saliva containing ~40% MPO, 150 μM dapsone
  loss of OPO activity in the presence or absence of the agent: similar
[4]; TS-treated saliva in the presence of 150 μM dapsone
  Loss of OPO activity: 60-85%

## CC(=O)N(O)CCCCCNC(=O)CCC(=O)N(O)CCCCCNC(=O)CCC(=O)N(O)CCCCCN [deferoxamine]
[3]; TS and saliva treatment, 80 minutes, 1 mM agent
  lymphocyte survival rate: 23.7%

## O=c1[nH]c(=O)c2[nH]c(=O)[nH]c2[nH]1 [uric acid]
[2]; uric acid added to suspension medium instead of saliva (10 or 100 μM, FIG. 18), no TS
  lymphocyte protein carbonylation levels: reduced carbonylation levels

Reference: patent US6789546B2, “Filters for preventing or reducing tobacco smoke-associated injury in the aerodigestive tract of a subject” (Technion Research & Development Foundation Ltd., priority 2001, dated 2004)
